Test results from patent US8076485B2, “Methylphenidate derivatives and uses of them” (priority 2005, dated 2011).

Assays:
[1] = test system: TNFα; assay: TNFα release from LPS-stimulated THP-1 monocytes (ELISA); type: cell-based; conditions: THP-1, LPS 200 ng/ml; Cpd II 15 μg/ml, Dex 10 μM
Protocol: THP-1 is a monocyte cell line obtained from American Type Culture Collection (ATCC) (catalog no. TIB-202). […] After 1 hour, lipopolysaccharide (LPS) (obtained from Sigma) was added to the cultures to give a final concentration of 200 ng/ml, and the cells were then incubated for an additional 4 hours or for an additional 24 hours. After the incubation, the cells were centrifuged, and the supernatants were collected. The concentrations of IL-8 and TNFα in the supernatants were determined by ELISA.
The TNFα ELISA was performed as described in Example 2.

[2] = test system: Jurkat T-lymphocyte leukemia cell line; assay: Jurkat cell viability (ETH-D1 / calcein AM); type: cell-based; conditions: Jurkat cells, 72 hours, control 20.85% ± 1.42%
Protocol: The Jurkat T-lymphocyte leukemia cell line was obtained from American Type Culture Collection (ATCC), Rockville, Md. (catalog no. TIB-152). Jurkat cells, at 1×10^5 cells/ml, were cultured at 37° C. and 5% CO2 in IMDM medium (ATCC) with 10% FCS for 72 hours with 7.5 μg/ml or 15 μg/ml of the compound of formula II (Cpd II). Following the incubation, the cells were washed with Hepes buffered saline, split into three equal volumes, and then incubated with 5 μM ethidium bromide dimer-1 (ETH-D1) (obtained from Molecular Probes) and 5 μM calcein AM solution (obtained from Promega) for one hour at 37° C. and 5% CO2 in 96-well culture plates to assay for cell viability. The fluorescence in each well was measured using a plate reader at excitation/emission 485/530 nm and 530/645 nm. Relative percentage of dead to live cells was calculated by dividing ETH-D1 fluorescence by calcein AM fluorescence.

[3] = test system: erythropoietin (EPO); assay: Erythropoietin (EPO) release from HepG2 cells (ELISA); type: cell-based, human; conditions: 24 hours
Protocol: HepG2 is a human hepatic cancer cell line, which was obtained from ATCC. HepG2 cells were grown to confluence in 25 cm^2 flasks in IMDM medium containing 10% FCS. Then, the cells were trypsinized as follows. The medium in each flask was aspirated and replaced with 5 ml of 0.025% trypsin/EDTA (Cambrex). The cells were monitored on a microscope until they no longer adhered to the flasks. Then, 5 ml of trypsin neutralizing solution (TNS) (Cambrex) were added to each flask to stop the reaction. The cell suspension was centrifuged at 1000 rpm for 10 minutes, and the supernatants were aspirated. The cells were reconstituted in fresh medium and counted. Then, 4 ml of the cell suspension in medium containing at 1.22×10^6 cells/ml were mixed with an additional 1 ml of medium. Next, 0.5 ml/well of the resulting cell suspension was added to wells in a 24-well culture plate (about 500,000 cells/well). The cells were treated as indicated in Table 5 below and incubated for 24 hours at 37° C., with or without 5% CO2. The supernatants were removed from the wells and centrifuged to remove debris. Next, the supernatants were analyzed for erythropoietin (EPO) production. EPO was measured by ELISA using a kit obtained from R & D Systems, Minneapolis, Minn. (catalog no. DE900) following the manufacturer's instructions.

[4] = test system: HUVECs; assay: HUVEC proliferation (Promega cell titer assay); type: cell-based, human; conditions: 48 hours; for Mean OD at 530 nm: HUVECs
Protocol: Passage 4 HUVECs, lot number 9713, in either EGM-2 plus 50 ng/ml vascular endothelial growth factor (VEGF) (obtained from Sigma) or in EGM-2 complete medium (containing 2% FCS, hydrocortisone, human fibroblast growth factor B, VEGF, recombinant insulin-like growth factor-1, ascorbate, human […], gentamycin and heparin) (obtained from Cambrex) were put into the wells of a 96-well tissue culture plate at 5,000 cells/well. The following additives were added to the cells: water (vehicle control); 5 μg/ml of the compound of formula II (Cpd II); 15 μg/ml Cpd II; or 30 μg/ml of Cpd II. After 48 hours of culture at 37° C. and 5% CO2, cell proliferation was evaluated by the Promega cell titer assay as described in Example 1, except that the plates were incubated for only 2 hours after addition of the Promega cell titer reagent.

COC(=O)C(c1ccc(-c2ccccc2)cc1)C1CCCCN1 (stereo not drawn) [Cpd II]
release of TNFα from the LPS-stimulated monocytes [1]: significantly inhibited the release of TNFα | Relative Percentage Dead/Live ([2]; 7.5 μg/ml): 16.74% ± 2.15% | Relative Percentage Dead/Live ([2]; 15 μg/ml): 40.79% ± 1.81% | Mean Units/ml EPO ([3]; HepG2, hypoxia (5% CO2), Cpd II 15 μg/ml, LY 294002 25 μM, hypoxia alone 108.39 ± 2.81): 71.60 ± 2.01 Units/ml | release of EPO from the HepG2 cells ([3]; HepG2, hypoxia, 15 μg/ml): significantly inhibited the release of EPO | number of cells detected in the wells ([4]; HUVECs, 5, 15, 30 μg/ml): reduced the number of cells detected in the wells in a dose-dependent manner | Mean OD at 530 nm ([4]; EGM-2 + VEGF, 5 μg/ml, vehicle 0.224 ± 0.011): 0.189 ± 0.014 | Mean OD at 530 nm ([4]; EGM-2 + VEGF, 15 μg/ml, vehicle 0.224 ± 0.011): 0.132 ± 0.022 | Mean OD at 530 nm ([4]; EGM-2 + VEGF, 30 μg/ml, vehicle 0.224 ± 0.011): 0.046 ± 0.012 | Mean OD at 530 nm ([4]; EGM-2 + growth factors, 5 μg/ml, vehicle 0.299 ± 0.011): 0.271 ± 0.022 | Mean OD at 530 nm ([4]; EGM-2 + growth factors, 15 μg/ml, vehicle 0.299 ± 0.011): 0.239 ± 0.019 | Mean OD at 530 nm ([4]; EGM-2 + growth factors, 30 μg/ml, vehicle 0.299 ± 0.011): 0.066 ± 0.003
